# Source: patent US6350749B1, “Aminoguanidine hydrazone derivatives, process for producing the same and drugs thereof” (Takeda Chemical Industries, Ltd., priority 1998, dated 2002)
row,Compound,melting point
1,CNC(=N)NN=C1CC(c2ccccc2Cl)Cc2[nH]nc(C)c21.Cl (stereo not shown),240 °C (dec.)
2,Cc1cnnc2c1C(=NNC(=N)N)CC(c1cc(Cl)ccc1F)C2.Cl (stereo not shown),≥ 300 °C
3,Cc1coc2c1/C(=N/NC(=N)N)CC(c1ccccc1F)C2.Cl (stereo not shown),288 °C (dec.)
4,COc1ccccc1C1CC(=NNC(=N)N)c2c(C)ccnc2C1.Cl (stereo not shown),192 °C (dec.)
5,CCCn1ccc2c1CC(c1ccccc1)CC2=NNC(=N)N.Cl (stereo not shown),155 °C (dec.)
6,Cc1cn[n+]([O-])c2c1C(=NNC(=N)N)CC(c1ccccc1Cl)C2.Cl (stereo not shown),283 to 284 °C
7,Cc1coc2c1/C(=N/NC(=N)N)CC(c1ccccc1C(F)(F)F)C2.Cl (stereo not shown),275 °C (dec.)
8,Cc1ccnc2c1C(=NNC(=N)N)CC(c1cc(F)ccc1O)C2.Cl (stereo not shown),264 to 266 °C
9,CS(=O)(=O)O.Cc1ccnc2c1C(=NNC(=N)N)CC(c1sc(Cl)cc1Cl)C2 (stereo not shown) [Compound 143],168 to 172 °C
10,Cc1cc(C)c2c(n1)CC(c1ccccc1Cl)CC2=NNC(=N)N.Cl (stereo not shown),227 °C (dec.)
11,Cc1ccnc2c1C(=NNC(=N)N)CC(c1cc(F)ccc1Cl)C2.Cl (stereo not shown),268 °C (dec.)
12,Cc1cn(S(C)(=O)=O)c2c1C(=NNC(=N)N)CC(c1ccccc1Cl)C2.Cl (stereo not shown),258 °C (dec.)
13,Cc1coc2c1/C(=N/NC(=N)N)CC(c1cccc(Cl)c1Cl)C2.Cl (stereo not shown),286 °C (dec.)
14,Cc1cc(=O)[nH]c2c1C(=NNC(=N)N)CC(c1ccsc1)C2.Cl (stereo not shown),≥ 300 °C
15,CCOC(=O)c1coc2c1/C(=N/NC(=N)N)CC(c1ccccc1)C2.Cl (stereo not shown),260 °C (dec.)
16,Cc1coc2c1/C(=N/NC(=N)N)CC(c1ccccc1Cl)C2.Cl (stereo not shown),300 °C (dec.)
17,Cc1ccnc2c1C(=NNC(=N)N)CC(c1ccccc1Br)C2.Cl (stereo not shown),233 °C (dec.)
18,Cc1ccnc2c1C(=NNC(=N)N)CC(c1cccc(Cl)c1Cl)C2.Cl (stereo not shown),270 to 272 °C
19,Cc1ccnc2c1C(=NNC(=N)N)CC(c1ccc(F)cc1F)C2.Cl (stereo not shown),286 °C (dec.)
20,Cc1cc2c([nH]1)CC(c1ccccc1)CC2=NNC(=N)N.Cl (stereo not shown),215 °C (dec.)
21,Cc1ccc(Cl)c(C2CC(=NNC(=N)N)c3c(C)ccnc3C2)c1.Cl (stereo not shown),240 to 243 °C
22,Cc1nn(CCc2ccccc2)c2c1C(=NNC(=N)N)CC(c1ccccc1Cl)C2.Cl (stereo not shown),152 to 154 °C

row,Compound,melting point
1,Cc1ccnc2c1C(=NNC(=N)N)CC(c1sc(Cl)cc1Cl)C2.Cl (stereo not shown),184 to 187 °C
2,Cc1ccnc2c1C(=NNC(=N)N)CC(c1ccccn1)C2.Cl (stereo not shown),260 °C (dec.)
3,COc1ccccc1C1C/C(=N\NC(=N)N)c2c(C)coc2C1.Cl (stereo not shown),279 °C (dec.)
4,Cc1ccnc2c1C(=NNC(=N)N)CC(c1ccncc1)C2.Cl (stereo not shown),267 °C (dec.)
5,Cc1ccnc2c1C(=NNC(=N)N)CC(c1nccs1)C2.Cl (stereo not shown),282 °C (dec.)
6,Cc1cc(C)c2c(n1)CC(c1ccccc1)CC2=NNC(=N)N.Cl (stereo not shown),270 °C (dec.)
7,Cc1cc[n+]([O-])c2c1C(=NNC(=N)N)CC(c1cc(Cl)sc1Cl)C2.Cl (stereo not shown),≥ 300 °C
8,Cc1c2c(nn1CCc1ccccc1)CC(c1ccccc1Cl)CC2=NNC(=N)N.Cl (stereo not shown),185 °C (dec.)
9,Cc1ccccc1C1CC(=NNC(=N)N)c2c(C)ccnc2C1.Cl (stereo not shown),218 °C (dec.)
10,Cc1cc(=O)n(C)c2c1C(=NNC(=N)N)CC(c1ccsc1)C2.Cl (stereo not shown),156 to 157 °C
11,Cl.N=C(N)NN=C1CC(c2ccccc2)Cc2c1ccn2C(=O)c1ccccc1 (stereo not shown),168 °C (dec.)
12,Cl.N=C(N)NN=C1CC(c2ccccc2Cl)Cc2nncc(-c3ccc(Cl)cc3)c21 (stereo not shown),196 °C (dec.)
13,Cc1ccnc2c1C(=NNC(=N)NO)CC(c1ccsc1Br)C2.Cl (stereo not shown),197 to 198 °C
14,Cc1ccnc2c1C(=NNC(=N)N)CC(c1ccco1)C2.Cl (stereo not shown),≥ 300 °C
15,Cc1ccc(F)c(C2CC(=NNC(=N)N)c3c(C)ccnc3C2)c1.Cl (stereo not shown),230 to 235 °C
16,Cc1nn(CCCc2ccccc2)c2c1C(=NNC(=N)N)CC(c1ccccc1Cl)C2.Cl (stereo not shown),210 °C (dec.)
17,Cc1ccnc2c1C(=NNC(=N)NO)CC(c1ccccc1Cl)C2.Cl (stereo not shown),185 to 187 °C
18,Cc1cc(Cl)sc1C1CC(=NNC(=N)N)c2c(C)ccnc2C1.Cl (stereo not shown),193 to 196 °C
19,Cc1cc(Cl)c(C2CC(=NNC(=N)N)c3c(C)ccnc3C2)s1.Cl (stereo not shown),198 to 200 °C
20,Cc1ccc2c(n1)CC(c1ccccc1C)CC2=NNC(=N)N.Cl (stereo not shown),206 °C (dec.)
21,Cc1cc(=O)[nH]c2c1C(=NNC(=N)N)CC(c1ccccc1Cl)C2.Cl (stereo not shown),≥ 300 °C
22,Cc1ccnc2c1C(=NNC(=N)N)CC(c1cc(Cl)ccc1Cl)C2.Cl (stereo not shown),≥ 300 °C

row,Compound,melting point
1,Cc1coc2c1/C(=N/NC(=N)N)CC(c1ccccc1Br)C2.Cl (stereo not shown),296 °C (dec.)
2,Cc1ccc2c(n1)CC(c1ccccc1)CC2=NNC(=N)N.Cl (stereo not shown),≥ 300 °C
3,CS(=O)(=O)O.Cc1ccnc2c1C(=NNC(=N)N)CC(c1cc(Cl)sc1Cl)C2.O (stereo not shown) (hydrate or solvate),239 to 241 °C
4,Cc1n[nH]c2c1C(=NNC(=N)N)CC(c1ccccc1O)C2.Cl (stereo not shown),168 °C (dec.)
5,Cc1cnnc2c1C(=NNC(=N)N)CC(c1ccsc1)C2.Cl (stereo not shown),278 to 280 °C (dec.)
6,Cc1ccc(C2Cc3occc3/C(=N/NC(=N)N)C2C)s1.Cl (stereo not shown),287 °C (dec.)
7,Cc1ccnc2c1C(=NNC(=N)N)CC(c1ccsc1Cl)C2.Cl (stereo not shown),281 to 283 °C (dec.)
8,Cl.N=C(N)NN=C1CC(c2ccccc2)Cc2[nH]ccc21 (stereo not shown),192 to 194 °C
9,"Cc1ccnc2c1C(=NNC(=N)N)CC(c1cc(Cl)sc1Cl)C2 (single isomer, unassigned; (-)) [Compound 112, (−)-7-(2,5-dichlorothiophen-3-yl)-5-guanidinoimino-4-methyl-5,6,7,8-tetrahydroquinoline]",129 to 133 °C
10,Cc1ccnc2c1C(=NNC(=N)N)CC(c1ccc(F)cc1)C2.Cl (stereo not shown),259 °C (dec.)
11,"N=C(N)NN=C1CC(c2cc(Cl)sc2Cl)Cc2nncc(C(F)(F)F)c21 (stereo not shown) [Compound 135, 7-(2,5-dichlorothiophen-3-yl)-5-guanidinoimino-4-trifluoromethyl-5,6,7,8-tetrahydrocinnoline]",265 to 266 °C (dec.)
12,Cc1cc(C)c2c(n1)CC(c1ccccn1)CC2=NNC(=N)N.Cl (stereo not shown),201 °C (dec.)
13,"Cc1ccnc2c1C(=NNC(=N)N)CC(c1cc(Cl)sc1Cl)C2 (racemic) [Compound 108, (±)-7-(2,5-dichlorothiophen-3-yl)-5-guanidinoimino-4-methyl-5,6,7,8-tetrahydroquinoline]",250 to 251 °C
14,CS(=O)(=O)O.Cc1ccnc2c1C(=NNC(=N)N)CC(c1sc(Cl)cc1Cl)C2 (stereo not shown) [Compound 144],172 to 176 °C
15,CS(=O)(=O)O.Cc1ccnc2c1C(=NNC(=N)N)CC(c1ccccc1Cl)C2 (stereo not shown) [Compound 65],194 to 196 °C
16,Cc1ccnc2c1C(=NNC(=N)N)CC(c1cc(Br)sc1Br)C2.Cl (stereo not shown),272 to 273 °C
17,COc1ccc(C2CC(=NNC(=N)N)c3c(C)coc3C2)cc1.Cl (stereo not shown),182 °C (dec.)
18,Cc1cn(S(C)(=O)=O)c2c1C(=NNC(=N)N)CC(c1cccs1)C2.Cl (stereo not shown),297 °C (dec.)
19,CCc1cn(S(C)(=O)=O)c2c1C(=NNC(=N)N)CC(c1ccccc1)C2.Cl (stereo not shown),260 °C (dec.)
20,Cc1ccnc2c1C(=NNC(=N)N)CC(c1cc(Cl)ccc1O)C2.Cl (stereo not shown),202 °C (dec.)
